Source: ChEMBL document CHEMBL4411303, “Synthesis of tetrazole derivatives bearing pyrrolidine scaffold and evaluation of their antifungal activity against Candida albicans” (Eur J Med Chem, 2019)
Converted amounts (≈) assume the structure as drawn. The source made the active and inactive calls. No cut-off for these calls is given here.

Experiments:
Candida albicans [1] = assay: Selectivity index, ratio of CC50 for induction of necrosis in Candida albicans ATCC 90028 to MIC for Candida albicans ATCC 90028; format: functional
Candida albicans [2] = assay: Antifungal activity against Candida albicans ATCC 90028 infected in Galleria mellonella larvae assessed as induction of pathogen entrapping by haemocytes at 10 uL measured at 24 hrs interval for 144 hrs by HE staining based microscopic analysis; format: functional, organism-based
Candida albicans [3] = assay: Antifungal activity against Candida albicans ATCC 90028 assessed as planktonic growth inhibition at 11.51 uM after 48 hrs by M27-A3 protocol based method relative to control; format: functional; settings: ATCC 90028, 48 h, read-out: GI
Candida albicans [4] = assay: Antifungal activity against Candida albicans ATCC 90028 assessed as reduction in cell growth after 48 to 72 hrs by M27-A3 protocol based method; format: functional
[5] = Toxicity in Galleria mellonella larvae assessed as movement melanization at 46.05 uM measured after 48 hrs (reference value: 0%)
[6] = Toxicity in Galleria mellonella larvae assessed as cocoon formation at 46.05 uM measured after 18 hrs (reference value: 60 +/- 20%)
Candida albicans [7] = assay: Antifungal activity against Candida albicans ATCC 90028 assessed as planktonic growth inhibition at 5.76 uM after 48 hrs by M27-A3 protocol based method relative to control; format: functional; settings: ATCC 90028, 48 h, read-out: GI
Candida albicans [8] = assay: Antifungal activity against Candida albicans ATCC 90028 assessed as planktonic growth inhibition at 0.72 uM after 48 hrs by M27-A3 protocol based method relative to control; format: functional; settings: ATCC 90028, 48 h, read-out: GI
[9] = Toxicity in Galleria mellonella larvae assessed as cocoon formation at 46.05 uM measured after 48 hrs (reference value: 85 +/- 5%)
Candida albicans [10] = assay: Antifungal activity against Candida albicans ATCC 90028 assessed as planktonic growth inhibition at 1.44 uM after 48 hrs by M27-A3 protocol based method relative to control; format: functional; settings: ATCC 90028, 48 h, read-out: GI
Candida albicans [11] = assay: Inhibition of Candida albicans ATCC 90028 cell adhesion to human TR146 cells at reduction in cell adherence at 46.05 uM relative to control; format: functional; settings: ATCC 90028, TR146
[12] = Toxicity in Galleria mellonella larvae assessed as survival rate at 46.05 uM measured after 48 hrs (reference value: 100%)
Candida albicans [13] = assay: Antifungal activity against Candida albicans ATCC 90028 assessed as planktonic growth inhibition at 0.36 uM after 48 hrs by M27-A3 protocol based method relative to control; format: functional; settings: ATCC 90028, 48 h, read-out: GI
Candida albicans [14] = assay: Antifungal activity against Candida albicans ATCC 90028 infected in Galleria mellonella larvae assessed as inhibition of fungus filamentation at 10 uL measured at 24 hrs interval for 144 hrs by HE staining based microscopic analysis; format: functional, organism-based
[15] = Toxicity in Galleria mellonella larvae assessed as survival rate at 46.05 uM measured after 120 hrs (reference value: 100%)
Candida albicans [16] = assay: Antibiofilm activity against Candida albicans ATCC 90028 assessed as inhibition of biofilm formation […] after 24 hrs by XTT assay relative to control; format: functional, organism-based; settings: ATCC 90028, 24 h
Candida albicans [17] = assay: Induction of apoptosis in Candida albicans ATCC 90028 assessed as necrotic cells at 46.05 uM by Annexin V-FITC/propidium iodide staining based flow cytometry relative to control; format: functional
Candida albicans [18] = assay: Antifungal activity against Candida albicans ATCC 90028 assessed as planktonic growth inhibition at 23.02 uM after 48 hrs by M27-A3 protocol based method relative to control; format: functional; settings: ATCC 90028, 48 h, read-out: GI
Candida albicans [19] = assay: Antifungal activity against Candida albicans ATCC 90028 assessed as reduction in cell growth after 48 to 72 hrs in presence of ergosterol by M27-A3 protocol based method; format: functional
Candida albicans [20] = assay: Antifungal activity against Candida albicans ATCC 90028 assessed as planktonic growth inhibition at 2.88 uM after 48 hrs by M27-A3 protocol based method relative to control; format: functional; settings: ATCC 90028, 48 h, read-out: GI
Candida albicans [21] = assay: Antifungal activity against Candida albicans ATCC 90028 assessed as planktonic growth inhibition at 0.18 uM after 48 hrs by M27-A3 protocol based method relative to control; format: functional; settings: ATCC 90028, 48 h, read-out: GI
Candida albicans [22] = assay: Antifungal activity against Candida albicans ATCC 90028 assessed as planktonic growth inhibition at 46.05 uM after 48 hrs by M27-A3 protocol based method relative to control; format: functional; settings: ATCC 90028, 48 h, read-out: GI
[23] = Toxicity in Galleria mellonella larvae assessed as cocoon formation at 46.05 uM measured after 48 hrs (reference value: 100 +/- 0%)
[24] = Toxicity in Galleria mellonella larvae assessed as survival rate at 46.05 uM measured after 18 hrs (reference value: 100%)
Candida albicans [25] = assay: Fungicidal activity against Candida albicans ATCC 90028 assessed as log reduction in fungal load incubated for 48 hrs followed by replating on sabouraud dextrose agar plate and measured after 48 hrs; format: functional
Candida albicans [26] = assay: Induction of apoptosis in Candida albicans ATCC 90028 assessed as necrotic cells by Annexin V-FITC/propidium iodide staining based flow cytometry; format: functional, organism-based
[27] = Toxicity in Galleria mellonella larvae assessed as movement melanization at 46.05 uM measured after 128 hrs (reference value: 0%)
Candida albicans [28] = assay: Induction of reactive oxygen species generation in Candida albicans ATCC 90028 assessed as ROS level at 46.05 uM after 18 hrs by DCFDA probe based flow cytometry (reference value: 0.3%); format: functional
Candida albicans [29] = assay: Antifungal activity against Candida albicans ATCC 90028 assessed as planktonic growth inhibition at 0.09 uM after 48 hrs by M27-A3 protocol based method relative to control; format: functional; settings: ATCC 90028, 48 h, read-out: GI
[30] = Toxicity in Galleria mellonella larvae assessed as movement melanization at 46.05 uM measured after 18 hrs (reference value: 0%)
Candida albicans [31] = assay: Cell cycle arrest in Candida albicans ATCC 90028 assessed as accumulation at G0/G1-phase by propidium iodide staining based flow cytometry; format: functional, organism-based
[32] = Selectivity index, ratio of CC50 for African green monkey Vero cells to IC50 for Candida albicans ATCC 90028; format: toxicity; settings: read-out: Ratio CC50/IC50
Candida albicans [33] = assay: Induction of Candida albicans ATCC 90028 internalization in mouse RAW264.7 cells assessed as reduction in fungus-induced cell damage by measuring live and early apoptotic cells at 46.05 uM after 2 hrs acridine orange/ethidium bromide staining based confocal scanning microscopic analysis; format: functional, organism-based

Cc1cccc(C2CCCN2CCCn2nnc(-c3ccccc3)n2)c1 (stereo not drawn)
Selectivity Index (Candida albicans [1]): 4 | Activity (Candida albicans [2]): Active | inhibition of growth at 11.51 µM (Candida albicans [3]): 99.5% | MIC (Candida albicans [4]): 11.5 µM (≈ 4 µg/mL) | Activity [5]: 0% | Activity [6]: 87% | inhibition of growth at 5.76 µM (Candida albicans [7]): 99.4% | inhibition of growth at 0.72 µM (Candida albicans [8]): 99.4% | Activity [9]: 73% | inhibition of growth at 1.44 µM (Candida albicans [10]): 99.4% | inhibition at 46.05 µM (Candida albicans [11]): 98.2% | survival at 48 h, 46.05 µM [12]: 100% | inhibition of growth at 0.36 µM (Candida albicans [13]): 99.5% | inhibition (Candida albicans [14]): Active | survival at 120 h, 46.05 µM [15]: 80% | IC50 (Candida albicans [16]): 46.1 µM | Activity (Candida albicans [17]): 97% | inhibition of growth at 23.02 µM (Candida albicans [18]): 99.4% | MIC (Candida albicans [19]): 23 µM | inhibition of growth at 2.88 µM (Candida albicans [20]): 99.3% | inhibition of growth at 0.18 µM (Candida albicans [21]): 99.4% | inhibition of growth at 46.05 µM (Candida albicans [22]): 99.4% | Activity [23]: 80% | survival at 18 h, 46.05 µM [24]: 100% | log(activity) (Candida albicans [25]): -0.1 | IC50 (Candida albicans [26]): 46.1 µM | Activity [27]: 20% | Activity (Candida albicans [28]): 7% | inhibition of growth at 0.09 µM (Candida albicans [29]): 100% | Activity [30]: 0% | Activity (Candida albicans [31]): Active | selectivity ratio [32]: 2 | Activity (Candida albicans [33]): Active
